Source: patent publication US8962630B2, “Pyrrolopyrimidine compounds and their uses” (Novartis AG, priority 2008, dated 2015)

Legend:
Assay type in all cases: biochemical
CDK2/cyclin A = CDK2/cyclin A (Homo sapiens (Human), UniProt P24941); test: CDK2/Cyclin A enzymatic activity assay (IMAP-FP); conditions: Table 2; read-out: CDK2
CDK4/cyclin D1 = CDK4/cyclin D1 (Homo sapiens (Human), UniProt P11802); test: CDK4/Cyclin D1 enzymatic activity assay (Lance TR-FRET); conditions: Table 2; 3 μM ATP; read-out: CDK4
Procedure: A 384-well microtiter Lance TR-FRET (time-resolved-fluorescence energy transfer) endpoint assay was used for CDK4/cyclin D1 kinase activity measurements. The same assay was used for IC50 determination of small molecule inhibitors. In general, the kinase reactions were carried out in 30 μL volumes in the reaction solution containing the following: 2 uL compound (in […]), 18 uL CDK4/cyclin D1 in Assay Buffer (50 mM HEPES, pH 7.5, 5 mM MgCl2, 2 mM MnCl2, 1 mM DTT, 0.05% BSA, 0.02% Tween-20), 10 uL of the mixture of pRb152 and ATP. The final reaction mixture contains compound (inhibitor) with the concentration varying from 0.005-10 μM, 2% DMSO, 0.3 nM CDK4/cyclin D1, 175 nM pRb152, and 3 μM ATP (Amersham Pharmacia, Cat. No. 27-2056-01). All reactions were run at room temperature in 384-well white flat-bottom OptiPlates (Perkin Elmer, Cat. No. 6007290) for 60 min then were quenched by the addition of 10 μL of 120 mM EDTA. The signals were captured by the addition of 40 μL of the Detection Solution containing the following: Detection Buffer (50 mM HEPES, pH 7.5, 30 mM EDTA, 0.1% Triton x-100, 0.05% BSA), 70 ng/mL anti-phospho-pRb(S780) (Cell Signaling Technology, Cat. No. 9307S), 1 nM Lance Eu-W1024-Rabbit anti-IgG (Perkin Elmer, Cat. No. AD0082), and 20 nM SureLight™ Allophycocyanin-Streptavidin (Perkin Elmer, Cat. No. CR130-100). The resulted solutions were incubated at room temperature for 2 hours before read on the Evision Multilabel Reader (Perkin Elmer, Envision 2102-0010).
CDk4/cyclin D1 recombinant protein used in the enzymatic activity assay was prepared by coexpressing pDEST10-CDK4 (N-terminal His6) and pFastBacDual-GST-hCyclinDl viruses in Sf21 cells.

CDK1/cyclin B = CDK1/cyclin B (Homo sapiens (Human), UniProt P06493); test: CDK1/Cyclin B enzymatic activity assay (IMAP-FP); conditions: Table 2; 20 μM ATP; read-out: CDK1
Description: A 384-well microtiter IMAP-FPT™ (Molecular Devices Trade Mark Technology) endpoint assay was used for CDK1/cyclin B kinase activity measurements. The same assay was used for IC50 determination of small molecule inhibitors.

Sequence of CDK4/cyclin D1 (P11802 whole entry): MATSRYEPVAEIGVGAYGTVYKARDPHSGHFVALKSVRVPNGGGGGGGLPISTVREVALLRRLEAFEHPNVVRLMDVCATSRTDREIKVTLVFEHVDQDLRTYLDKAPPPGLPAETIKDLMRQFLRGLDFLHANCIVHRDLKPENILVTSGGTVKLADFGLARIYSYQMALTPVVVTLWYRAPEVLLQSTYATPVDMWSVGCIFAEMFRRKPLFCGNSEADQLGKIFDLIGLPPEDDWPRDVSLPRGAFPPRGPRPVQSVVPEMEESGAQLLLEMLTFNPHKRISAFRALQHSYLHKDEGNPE
Sequence of CDK4/cyclin D1 (P24385 whole entry partner): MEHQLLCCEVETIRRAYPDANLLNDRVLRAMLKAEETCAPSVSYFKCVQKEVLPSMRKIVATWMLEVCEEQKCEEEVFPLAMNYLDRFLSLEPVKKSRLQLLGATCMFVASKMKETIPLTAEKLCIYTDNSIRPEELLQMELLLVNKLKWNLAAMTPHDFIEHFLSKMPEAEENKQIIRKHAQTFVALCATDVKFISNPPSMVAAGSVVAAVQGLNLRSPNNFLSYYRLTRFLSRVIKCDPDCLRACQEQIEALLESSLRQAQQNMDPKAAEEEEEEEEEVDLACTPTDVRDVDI
Sequence of CDK1/cyclin B (P06493 whole entry, species assumed): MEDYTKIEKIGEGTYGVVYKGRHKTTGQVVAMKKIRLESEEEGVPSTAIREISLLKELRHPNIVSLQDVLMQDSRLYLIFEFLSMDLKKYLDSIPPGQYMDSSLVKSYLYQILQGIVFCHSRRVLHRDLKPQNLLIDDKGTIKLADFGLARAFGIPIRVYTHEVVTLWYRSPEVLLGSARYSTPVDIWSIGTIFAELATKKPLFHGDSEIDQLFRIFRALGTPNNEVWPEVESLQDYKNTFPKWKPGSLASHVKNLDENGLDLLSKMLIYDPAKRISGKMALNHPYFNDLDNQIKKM
Sequence of CDK1/cyclin B (P14635 whole entry partner, species assumed): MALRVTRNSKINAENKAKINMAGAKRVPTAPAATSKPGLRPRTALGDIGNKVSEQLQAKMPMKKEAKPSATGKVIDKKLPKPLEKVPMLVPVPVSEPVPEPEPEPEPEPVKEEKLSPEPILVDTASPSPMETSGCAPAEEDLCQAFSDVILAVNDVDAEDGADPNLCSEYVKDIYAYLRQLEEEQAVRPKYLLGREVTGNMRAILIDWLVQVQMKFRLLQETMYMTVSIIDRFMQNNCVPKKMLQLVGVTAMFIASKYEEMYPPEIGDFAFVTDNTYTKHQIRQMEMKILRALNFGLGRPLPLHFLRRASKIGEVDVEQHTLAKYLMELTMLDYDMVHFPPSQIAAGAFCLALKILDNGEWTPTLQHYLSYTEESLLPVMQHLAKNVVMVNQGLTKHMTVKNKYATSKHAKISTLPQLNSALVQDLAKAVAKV

| Structure (SMILES) | IC50 (CDK2/cyclin A) [nM] | IC50 (CDK4/cyclin D1) [nM] | IC50 (CDK1/cyclin B) [nM] |
| --- | --- | --- | --- |
| CN(C)C(=O)c1cc2cnc(Nc3ccc(N4CCN(C[C@H](O)CO)CC4)cn3)nc2n1C1CCCC1 [Example 29, 7-Cyclopentyl-2-{5-[4-((S)-2,3-dihydroxy-propyl)-piperazin-1-yl]-pyridin-2-ylamino}-7H-pyrrolo[2,3-d]pyrimidine-6-carboxylic acid dimethylamide] | > 15000 | 10 to 100 | 15000 |
| CN(C)CC(=O)N1CCN(c2ccc(Nc3ncc4cc(C(=O)N(C)C)n(C5CCCC5)c4n3)nc2)CC1 [Example 88, 7-Cyclopentyl-2-{5-[4-(2-dimethylamino-acetyl)-piperazin-1-yl]-pyridin-2-ylamino}-7H-pyrrolo[2,3-d]pyrimidine-6-carboxylic acid dimethylamide] | > 15000 | 1 to 10 | > 15000 |
| CN(C)C(=O)c1cc2cnc(Nc3ccc(C(=O)N4CCNCC4)cn3)nc2n1C1CCCC1 [Example 49, 7-Cyclopentyl-2-[5-(piperazine-1-carbonyl)-pyridin-2-ylamino]-7H-pyrrolo[2,3-d]pyrimidine-6-carboxylic acid dimethylamide] | > 15000 | 10 to 100 | > 15000 |
| CN(C)C(=O)c1cc2cnc(Nc3ccc(C(=O)N(C)C4CCNCC4)cn3)nc2n1C1CCCC1 [Example 53, 7-Cyclopentyl-2-[5-(methyl-piperidin-4-yl-carbamoyl)-pyridin-2-ylamino]-7H-pyrrolo[2,3-d]pyrimidine-6-carboxylic acid dimethylamide] | > 15000 | 10 to 100 | > 15000 |
| CN(C)C(=O)c1cc2cnc(Nc3ccc(N4CCN(C(=O)N5CCCC5)CC4)cn3)nc2n1C1CCCC1 [Example 22, 7-Cyclopentyl-2-{5-[4-(pyrrolidine-1-carbonyl)-piperazin-1-yl]-pyridin-2-ylamino}-7H-pyrrolo[2,3-d]pyrimidine-6-carboxylic acid dimethylamide] | > 15000 | 10 to 100 | > 15000 |
| CC1CN(c2ccc(Nc3ncc4cc(C(=O)N(C)C)n(C5CCCC5)c4n3)nc2)CCN1 (centres unmarked) [Example 19, 7-Cyclopentyl-2-[5-(3-methyl-piperazin-1-yl)-pyridin-2-ylamino]-7H-pyrrolo[2,3-d]pyrimidine-6-carboxylic acid dimethylamide] | > 15000 | 1 to 10 | > 15000 |
| CN(C)C(=O)c1cc2cnc(Nc3ccc(C(=O)N(C)CCN)cn3)nc2n1C1CCCC1 [Example 41, 2-{5-[(2-Amino-ethyl)-methyl-carbamoyl]-pyridin-2-ylamino}-7-cyclopentyl-7H-pyrrolo[2,3-d]pyrimidine-6-carboxylic acid dimethylamide] | 4700 | 1 to 10 | 14800 |
| CC(CO)N1CCN(c2ccc(Nc3ncc4cc(C(=O)N(C)C)n(C5CCCC5)c4n3)nc2)CC1 (centres unmarked) [Example 36, 7-Cyclopentyl-2-{5-[4-(2-hydroxy-1-methyl-ethyl)-piperazin-1-yl]-pyridin-2-ylamino}-7H-pyrrolo[2,3-d]pyrimidine-6-carboxylic acid dimethylamide] | > 15000 | 10 to 100 | > 15000 |
| CN(C)C(=O)c1cc2cnc(Nc3ccc(CN4CC5CCC(C4)N5)cn3)nc2n1C1CCCC1 [Example 73, 7-Cyclopentyl-2-[5-(3,8-diaza-bicyclo[3.2.1]oct-3-ylmethyl)-pyridin-2-ylamino]-7H-pyrrolo[2,3-d]pyrimidine-6-carboxylic acid dimethylamide] | – | 10 to 100 | – |

More lines, now with the values ahead:

| IC50 (CDK2/cyclin A) [nM] | IC50 (CDK4/cyclin D1) [nM] | IC50 (CDK1/cyclin B) [nM] | Structure (SMILES) |
| --- | --- | --- | --- |
| > 15000 | 10 to 100 | > 15000 | CNC(=O)c1cc2cnc(Nc3ccc(N4CCN(C(C)C)CC4)cn3)nc2n1C1CCCC1 [Example 51, 7-Cyclopentyl-2-[5-(4-isopropyl-piperazin-1-yl)-pyridin-2-ylamino]-7H-pyrrolo[2,3-d]pyrimidine-6-carboxylic acid methylamide] |
| > 15000 | 10 to 100 | > 15000 | CN(C)C(=O)c1cc2cnc(Nc3ccc(C(=O)NC4CCNCC4)cn3)nc2n1C1CCCC1 [Example 3, 7-Cyclopentyl-2-[5-(piperidin-4-ylcarbamoyl)-pyridin-2-ylamino]-7H-pyrrolo[2,3-d]pyrimidine-6-carboxylic acid dimethylamide] |
| > 15000 | 10 to 100 | > 15000 | CN(C)C(=O)c1cc2cnc(Nc3ccc(N4CCN(C(=O)C5CC5)CC4)cn3)nc2n1C1CCCC1 [Example 27, 7-Cyclopentyl-2-[5-(4-cyclopropanecarbonyl-piperazin-1-yl)-pyridin-2-ylamino]-7H-pyrrolo[2,3-d]pyrimidine-6-carboxylic acid dimethylamide] |
| > 15000 | 10 to 100 | > 15000 | CC(C)N1CCN(c2ccc(Nc3ncc4cc(C(=O)N(C)C)n(C5CCCC5)c4n3)nn2)CC1 [Example 70, 7-Cyclopentyl-2-[6-(4-isopropyl-piperazin-1-yl)-pyridazin-3-ylamino]-7H-pyrrolo[2,3-d]pyrimidine-6-carboxylic acid dimethylamide] |
| > 15000 | 10 to 100 | > 15000 | CN(C)C(=O)c1cc2cnc(Nc3ccc(C(=O)N4CCC(N(C)C)CC4)cn3)nc2n1C1CCCC1 [Example 50, 7-Cyclopentyl-2-[5-(4-dimethylamino-piperidine-1-carbonyl)-pyridin-2-ylamino]-7H-pyrrolo[2,3-d]pyrimidine-6-carboxylic acid dimethylamide] |
| > 15000 | 1 to 10 | > 15000 | CN(C)C(=O)c1cc2cnc(Nc3ccc(N4CCC(N(C)C)CC4)cn3)nc2n1C1CCCC1 [Example 6, 7-Cyclopentyl-2-(4-dimethylamino-3,4,5,6-tetrahydro-2-[1,3′]bipyridinyl-6′-ylamino)-7H-pyrrolo[2,3-d]pyrimidine-6-carboxylic acid dimethylamide] |
| > 15000 | 10 to 100 | 13000 | CN(C)C(=O)c1cc2cnc(Nc3ccc(C(=O)N4CCC(O)CC4)cn3)nc2n1C1CCCC1 [Example 87, 7-Cyclopentyl-2-[5-(4-hydroxy-piperidine-1-carbonyl)-pyridin-2-ylamino]-7H-pyrrolo[2,3-d]pyrimidine-6-carboxylic acid dimethylamide] |
| > 15000 | 10 to 100 | > 15000 | CN1CCN(Cc2ccc(Nc3ncc4cc(C(=O)N(C)C)n(C5CCCC5)c4n3)nc2)CC1 [Example 43, 7-Cyclopentyl-2-[5-(4-methyl-piperazin-1-ylmethyl)-pyridin-2-ylamino]-7H-pyrrolo[2,3-d]pyrimidine-6-carboxylic acid dimethylamide] |
| > 15000 | 100 to 1000 | > 15000 | CN(C)C(=O)c1cc2cnc(Nc3ccc(N4CCOCC4)cn3)nc2n1C1CCCC1 [Example 110, 7-Cyclopentyl-2-(5-morpholin-4-yl-pyridin-2-ylamino)-7H-pyrrolo[2,3-d]pyrimidine-6-carboxylic acid dimethylamide] |
| > 15000 | 10 to 100 | > 15000 | CN(C)C(=O)c1cc2cnc(Nc3ccc(N4CCN(C(=O)N5CCCCC5)CC4)cn3)nc2n1C1CCCC1 [Example 94, 7-Cyclopentyl-2-{5-[4-(piperidine-1-carbonyl)-piperazin-1-yl]-pyridin-2-ylamino}-7H-pyrrolo[2,3-d]pyrimidine-6-carboxylic acid dimethylamide] |
| > 15000 | 10 to 100 | > 15000 | CN(C)C(=O)c1cc2cnc(Nc3ccc(N4CCN(C(=O)N5CCOCC5)CC4)cn3)nc2n1C1CCCC1 [Example 38, 7-Cyclopentyl-2-{5-[4-(morpholine-4-carbonyl)-piperazin-1-yl]-pyridin-2-ylamino}-7H-pyrrolo[2,3-d]pyrimidine-6-carboxylic acid dimethylamide] |
| > 15000 | 100 to 1000 | > 15000 | CN(C)C(=O)c1cc2cnc(Nc3ccccn3)nc2n1C1CCC(C)(O)CC1 (centres unmarked) [Example 40, 7-(4-Hydroxy-4-methyl-cyclohexyl)-2-(pyridin-2-ylamino)-7H-pyrrolo[2,3-d]pyrimidine-6-carboxylic acid dimethylamide] |
| – | 100 to 1000 | – | CN(C)C(=O)c1cc2cnc(Nc3ccc(N4CCNCC4=O)cn3)nc2n1C1CCCC1 [Example 109, 7-cyclopentyl-2-[5-(2-oxopiperazin-1-yl)pyridin-2-ylamino]-7H-pyrrolo[2,3-d]pyrimidine-6-carboxylic acid dimethylamide] |
